Our source for the IC50 growth inhibition values is the supplement of paper PMC6461962.

A value given as a limit tells only on which side of the number the result lay.

In assay [1] the test system is Pseudomonas fluorescens FW300-N2E2. Put shortly: (§1)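 Washed cells (80 µL, final OD600 0.02) were dispensed onto 384-well dilution series of inorganic ion salts or equimolar nitrilotriacetic acid complexes. Plates kept aerobically were shaken at 700 rpm at 30 °C, anaerobic ones stayed still, and OD600 readings at 24 h (48 h for R2A strain comparisons) were scaled between water and growth-blocking antibiotic controls, ignoring wells with precipitate. IC50 values are drc R package fits of at least two biological replicate curves.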

Assay [2] concerns Rhodanobacter sp. FW104-10B01. Put shortly: as §1
Where [3] appears, read: medium / electron acceptor: N2E2 Glucose/aerobic.
Setting [4] is: medium / electron acceptor: N2E2 Glucose/aerobic 0.25xMinerals.
Where [5] appears, read: medium / electron acceptor: N2E2 Glucose/aerobic (2).
Where [6] appears, read: medium / electron acceptor: N2E2 KB/aerobic.
Where [7] appears, read: medium / electron acceptor: N2E2 LB/aerobic.
Setting [8] is: medium / electron acceptor: N2E2 LB/aerobic (2).
[9] abbreviates: medium / electron acceptor: N2E2 LB/nitrate.
[10] abbreviates: medium / electron acceptor: N2E2 Lactate/aerobic.
Setting [11] is: medium / electron acceptor: N2E2 R2A/aerobic.
Where [12] appears, read: medium / electron acceptor: 10B01 R2A/aerobic.
The mark [13] stands for this setting: medium / electron acceptor: 10B01 R2A/nitrate.

As for `[Ca+2].[Cl-].[Cl-]` [Calcium chloride dihydrate], the IC50 growth inhibition is over 500 mM in assay [1] (setting [3]); over 500 mM in assay [1] (setting [4]); over 500 mM in assay [1] (setting [5]); over 500 mM in assay [1] (setting [6]); 309 mM in assay [1] (setting [7]); 365 mM in assay [1] (setting [8]). In addition, the IC50 growth inhibition in assay [1] (setting [9]) was found to be 65.1 mM; in assay [1] (setting [10]), 452 mM; in assay [1] (setting [11]), 333 mM; in assay [2] (setting [12]), 354 mM; in assay [2] (setting [13]) it was 354 mM.
For the compound `O.O.O.O.O.O.O.O=[As]([O-])([O-])O.[Na+].[Na+]` [Sodium arsenate dibasic heptahydrate], the IC50 growth inhibition in assay [1] (setting [3]), in assay [1] (setting [4]), in assay [1] (setting [5]), in assay [1] (setting [6]), in assay [1] (setting [7]) and in assay [1] (setting [8]) was under 0.244 mM each time. Besides, the IC50 growth inhibition was 5.13 mM in assay [1] (setting [9]); under 0.244 mM in assay [1] (setting [10]); 0.874 mM in assay [1] (setting [11]); over 500 mM in assay [2] (setting [12]); over 500 mM in assay [2] (setting [13]).
As for `O=[Se]([O-])[O-].[Na+].[Na+]` [Sodium selenite pentahydrate], the IC50 growth inhibition in assay [1] (setting [3]), in assay [1] (setting [4]), in assay [1] (setting [5]), in assay [1] (setting [6]), in assay [1] (setting [7]) and in assay [1] (setting [8]) was under 0.244 mM each time. In addition, the IC50 growth inhibition in assay [1] (setting [9]) is 250 mM; in assay [1] (setting [10]), under 0.244 mM; in assay [1] (setting [11]), under 0.244 mM; in assay [2] (setting [12]), 250 mM; in assay [2] (setting [13]) it was 112 mM.
For the compound `[Cl][Ga]([Cl])[Cl]` [Gallium(III)chloride], the IC50 growth inhibition in assay [1] (setting [3]), in assay [1] (setting [4]), in assay [1] (setting [5]), in assay [1] (setting [6]), in assay [1] (setting [7]) and in assay [1] (setting [8]) was under 0.0244 mM each time. The IC50 growth inhibition was under 0.0244 mM in assay [1] (setting [9]); under 0.0244 mM in assay [1] (setting [10]); under 0.0244 mM in assay [1] (setting [11]); 1 mM in assay [2] (setting [12]); 1.67 mM in assay [2] (setting [13]).
For `O=[Se](=O)([O-])[O-].[Na+].[Na+]` [Sodium selenate], the IC50 growth inhibition in assay [1] (setting [3]) is under 0.244 mM; in assay [1] (setting [4]), under 0.244 mM; in assay [1] (setting [5]) it was under 0.244 mM; in assay [1] (setting [6]) it was 290 mM; in assay [1] (setting [7]) it was 354 mM; in assay [1] (setting [8]), 300 mM. Moreover, the IC50 growth inhibition in assay [1] (setting [9]) is 189 mM; in assay [1] (setting [10]), under 0.244 mM; in assay [1] (setting [11]) it was 62.5 mM; in assay [2] (setting [12]), 251 mM; in assay [2] (setting [13]), 163 mM.
In the case of `[Cl][Hg][Cl]` [mercury (II) chloride], the IC50 growth inhibition in assay [1] (setting [3]), in assay [1] (setting [4]), in assay [1] (setting [5]), in assay [1] (setting [6]), in assay [1] (setting [7]) and in assay [1] (setting [8]) was under 0.00244 mM each time. Besides, the IC50 growth inhibition in assay [1] (setting [9]), in assay [1] (setting [10]), in assay [1] (setting [11]), in assay [2] (setting [12]) and in assay [2] (setting [13]) was under 0.00244 mM each time.
With `[O-][I+3]([O-])([O-])O` [Sodium periodate], the IC50 growth inhibition is 5.52 mM in assay [1] (setting [3]); 2.35 mM in assay [1] (setting [4]); 1.56 mM in assay [1] (setting [5]); 0.326 mM in assay [1] (setting [6]); 0.813 mM in assay [1] (setting [7]); 2.35 mM in assay [1] (setting [8]). For the same compound, the IC50 growth inhibition in assay [1] (setting [9]) is 0.146 mM; in assay [1] (setting [10]), 27.4 mM; in assay [1] (setting [11]), 0.772 mM; in assay [2] (setting [12]) it was 0.101 mM; in assay [2] (setting [13]) it was 0.0825 mM.
Turning to `OCl` [Sodium hypochlorite], the IC50 growth inhibition in assay [1] (setting [3]) was over 5 mM; in assay [1] (setting [4]), over 5 mM; in assay [1] (setting [5]), 2.28 mM; in assay [1] (setting [6]) it was over 5 mM; in assay [1] (setting [7]), over 5 mM; in assay [1] (setting [8]), over 5 mM. Moreover, the IC50 growth inhibition in assay [1] (setting [9]) is 0.534 mM; in assay [1] (setting [10]), over 5 mM; in assay [1] (setting [11]) it was 3.32 mM; in assay [2] (setting [12]), over 5 mM; in assay [2] (setting [13]), over 5 mM.
Turning to `[Cl][Pd][Cl]` [Palladium(II) chloride], the IC50 growth inhibition in assay [1] (setting [3]) is under 0.00244 mM; in assay [1] (setting [4]), under 0.00244 mM; in assay [1] (setting [5]) it was under 0.00244 mM; in assay [1] (setting [6]), 3.73 mM; in assay [1] (setting [7]), over 5 mM; in assay [1] (setting [8]) it was 3.78 mM. For the same compound, the IC50 growth inhibition was over 5 mM in assay [1] (setting [9]); under 0.00244 mM in assay [1] (setting [10]); 0.249 mM in assay [1] (setting [11]); over 5 mM in assay [2] (setting [12]); over 5 mM in assay [2] (setting [13]).
With `[O-][Cl+]O` [Sodium Chlorite], the IC50 growth inhibition in assay [1] (setting [3]) was under 0.00244 mM; in assay [1] (setting [4]), under 0.00244 mM; in assay [1] (setting [5]), under 0.00244 mM; in assay [1] (setting [6]), under 0.00244 mM; in assay [1] (setting [7]), 0.0105 mM; in assay [1] (setting [8]), under 0.00244 mM. Besides, the IC50 growth inhibition in assay [1] (setting [9]) is 0.00287 mM; in assay [1] (setting [10]) it was under 0.00244 mM; in assay [1] (setting [11]), 0.00662 mM; in assay [2] (setting [12]), over 5 mM; in assay [2] (setting [13]), over 5 mM.
With `[Na+].[O]=[V](=[O])[O-]` [Sodium metavanadate], the IC50 growth inhibition in assay [1] (setting [3]) is 0.0793 mM; in assay [1] (setting [4]) it was 0.432 mM; in assay [1] (setting [5]) it was 0.0997 mM; in assay [1] (setting [6]), under 0.0244 mM; in assay [1] (setting [7]), 3.26 mM; in assay [1] (setting [8]) it was 13.4 mM. Moreover, the IC50 growth inhibition in assay [1] (setting [9]) is 6.94 mM; in assay [1] (setting [10]) it was 2.34 mM; in assay [1] (setting [11]), 8.62 mM; in assay [2] (setting [12]), over 50 mM; in assay [2] (setting [13]), over 50 mM.
As for `[Cl][Ag]` [silver chloride], the IC50 growth inhibition is 0.139 mM in assay [1] (setting [3]); over 0.5 mM in assay [1] (setting [4]); over 0.5 mM in assay [1] (setting [5]); over 0.5 mM in assay [1] (setting [6]); over 0.5 mM in assay [1] (setting [7]); over 0.5 mM in assay [1] (setting [8]). Also, the IC50 growth inhibition in assay [1] (setting [9]) was over 0.5 mM; in assay [1] (setting [10]) it was 0.154 mM; in assay [1] (setting [11]), over 0.5 mM; in assay [2] (setting [12]), over 0.5 mM; in assay [2] (setting [13]), over 0.5 mM.
For `O.O.O.O.O.O.O.O.O.O.O=S(=O)([O-])[O-].[Na+].[Na+]` [Sodium sulfate], the IC50 growth inhibition was 356 mM in assay [1] (setting [3]); over 500 mM in assay [1] (setting [4]); over 500 mM in assay [1] (setting [5]); over 500 mM in assay [1] (setting [6]); 455 mM in assay [1] (setting [7]); over 500 mM in assay [1] (setting [8]). The IC50 growth inhibition stood at 311 mM in assay [1] (setting [9]); 384 mM in assay [1] (setting [10]); 183 mM in assay [1] (setting [11]); 354 mM in assay [2] (setting [12]); 317 mM in assay [2] (setting [13]).
